Measured values as given in ChEMBL document CHEMBL1201862, “PubChem BioAssay data set” (2004).
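Five concentrations, 48 hours, 96-well plates. At the GI50, growth is halved.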 Calls of active or inactive are those of the source. Cut-off read from the data, not from the text of the source: active = GI50 up to about 1.1 µM and inactive = higher.

Columns and labels:
Assay in all cases: NCI-60 cell line screen, 48 h
[1] = tested on: COLO 205
[2] = tested on: A498
[3] = tested on: K562
[4] = tested on: EKVX
[5] = tested on: SF-295
[6] = tested on: HL-60
[7] = tested on: DU-145
[8] = tested on: 786-0
[9] = tested on: OVCAR-8
[10] = tested on: MCF7
[11] = tested on: OVCAR-5
[12] = tested on: MOLT-4
[13] = tested on: CAKI-1
[14] = tested on: CCRF-CEM
[15] = tested on: HT-29
[16] = tested on: U-251
[17] = tested on: SW-620
[18] = tested on: SK-MEL-5
[19] = tested on: SF-268
[20] = tested on: HCC 2998

Measured: GI50

O=C(O)CSc1n[nH]c(=O)[nH]c1=O
inactive: [1] > 100 µM | [2] > 100 µM | [3] > 100 µM | [4] > 100 µM | [5] > 100 µM | [6] > 100 µM | [7] > 100 µM | [8] > 100 µM | [9] > 100 µM | [10] > 100 µM | [11] > 100 µM | [12] > 100 µM | [13] > 100 µM | [14] > 100 µM | [15] > 100 µM | [16] > 100 µM | [17] > 100 µM | [18] > 100 µM | [19] > 100 µM

C[C@@H]1S[C@H](c2c(F)cccc2Cl)n2c1nc1ccccc12
inactive: [1] 11.2 µM | [20] 13.6 µM | [3] 4.4 µM | [4] 22.1 µM | [5] 18.5 µM | [7] 27.2 µM | [8] 14.8 µM | [9] 19 µM | [10] 25.2 µM | [11] 33.4 µM | [12] 5.04 µM | [13] 8.43 µM | [14] 10.6 µM | [15] 14.7 µM | [16] 10.8 µM | [17] 13.7 µM | [19] 15.1 µM

CN1CCc2c(sc3ncn(C)c(=N)c23)C1
inactive: [1] > 100 µM | [2] > 100 µM | [3] > 100 µM | [4] > 100 µM | [5] > 100 µM | [6] > 100 µM | [7] > 100 µM | [8] > 100 µM | [9] > 100 µM | [10] > 100 µM | [11] > 100 µM | [12] > 100 µM | [13] > 100 µM | [14] > 100 µM | [15] > 100 µM | [16] > 100 µM | [17] > 100 µM | [18] > 100 µM | [19] > 100 µM

COc1c(-c2nc3ccc(N4CCN(C)CC4)cc3[nH]2)cc(OC)c2[nH]c(CO)nc12
inactive: [1] 82.4 µM | [2] > 100 µM | [3] > 100 µM | [4] > 100 µM | [5] > 100 µM | [6] 14.1 µM | [7] 84.5 µM | [8] 90.8 µM | [9] > 100 µM | [10] 54.3 µM | [11] > 100 µM | [12] > 100 µM | [13] > 100 µM | [14] 13.3 µM | [15] 79.8 µM | [16] 74.8 µM | [17] 74.8 µM | [18] > 100 µM | [19] > 100 µM

O=C(O)CNC(=O)CO/N=C1/C(=C2/C(=O)Nc3ccccc32)Nc2ccccc21
inactive: [1] 46.2 µM | [20] 47 µM | [3] > 100 µM | [4] 94.6 µM | [5] > 100 µM | [6] 57.9 µM | [7] > 100 µM | [8] > 100 µM | [9] > 100 µM | [10] 72.4 µM | [11] > 100 µM | [12] 70.3 µM | [13] 28.1 µM | [14] 42.8 µM | [15] > 100 µM | [16] > 100 µM | [17] > 100 µM | [18] 54.2 µM | [19] > 100 µM

O=C1OC(OCC#CCOC2OC(=O)C(Cl)=C2Cl)C(Cl)=C1Cl (configuration not stated)
inactive: [1] 7.41 µM | [20] 2.8 µM | [4] 20.1 µM | [5] 20.7 µM | [7] 18.6 µM | [8] 4.86 µM | [9] 4.31 µM | [10] 6.17 µM | [11] 16.6 µM | [12] 2.43 µM | [14] 1.92 µM | [15] 5.6 µM | [17] 4.45 µM | [18] 18.2 µM | [19] 18.2 µM

O=C1CCc2cc3c(cc21)C(C(=O)O)CC3 (configuration not stated)
inactive: [1] > 100 µM | [20] > 100 µM | [3] > 100 µM | [4] > 100 µM | [5] > 100 µM | [6] > 100 µM | [7] > 100 µM | [8] > 100 µM | [9] > 100 µM | [10] > 100 µM | [11] > 100 µM | [12] > 100 µM | [13] > 100 µM | [14] > 100 µM | [15] > 100 µM | [16] > 100 µM | [17] > 100 µM | [18] > 100 µM | [19] > 100 µM

CN(Cc1ccccc1)Cn1ccnc1
inactive: [1] 33.5 µM | [2] > 91.6 µM | [3] 34.7 µM | [4] > 85.1 µM | [5] > 82.6 µM | [6] > 38.5 µM | [7] > 100 µM | [8] 72.9 µM | [9] > 100 µM | [10] 41 µM | [11] > 100 µM | [12] 46.5 µM | [13] > 100 µM | [14] 32.2 µM | [15] 29 µM | [16] > 71 µM | [17] > 100 µM | [18] 37.9 µM | [19] > 100 µM

CC(=O)c1nc2ccccc2n1CC(=O)c1ccc(Cl)cc1
inactive: [1] 20.9 µM | [2] 54.3 µM | [3] 1.52 µM | [4] 38.2 µM | [5] 13.4 µM | [6] 1.79 µM | [7] 13.4 µM | [8] 3.13 µM | [9] 2.4 µM | [10] 3.73 µM | [12] 4.05 µM | [13] 5.25 µM | [14] 4.09 µM | [15] 12.1 µM | [16] 2.99 µM | [17] 2.67 µM | [19] 3.94 µM

CCOC(=O)c1c(NC(=O)c2ccccc2)c(C#N)c2n1CCCCC2
inactive: [1] > 100 µM | [20] > 100 µM | [3] > 100 µM | [4] > 100 µM | [5] > 100 µM | [6] > 100 µM | [7] > 100 µM | [8] > 100 µM | [9] > 100 µM | [10] > 100 µM | [11] > 100 µM | [12] > 100 µM | [13] > 100 µM | [14] > 100 µM | [15] > 100 µM | [16] > 100 µM | [18] > 100 µM | [19] > 100 µM

NS(=O)(=O)c1ccc(NC(=O)c2cc([N+](=O)[O-])cc([N+](=O)[O-])c2)cc1
inactive: [1] 19.7 µM | [2] 65.2 µM | [3] 43.7 µM | [6] 32.1 µM | [7] 59.7 µM | [8] 76.2 µM | [9] 47.3 µM | [10] 19.5 µM | [12] 68.9 µM | [13] > 100 µM | [14] 28.8 µM | [15] 43.1 µM | [16] 37.8 µM | [17] 66.4 µM | [18] 38.7 µM | [19] 32.4 µM
